Assay results: patent publication US20240302376A1, “METHOD FOR IDENTIFYING SUBGROUPS OF CIRCULATING TUMOR CELLS (CTCS) IN THE CTC POPULATION OF A BIOLOGICAL SAMPLE” (priority 2012, published 2024)

How the values were obtained:
[1] = tested on: Pt-(GpG) adducts in DNA of CTC and CD45-positive cells; experiment: Pt-(GpG) DNA adducts in CD45/CD15-depleted mononuclear cell fraction exposed to cisplatin ex vivo; assay type: cell-based, human; conditions: after exposure to cisplatin, NSCLC patient blood
Text: Pt-(GpG) intrastrand crosslinks are the major DNA adducts induced by platinum-based anticancer drugs. […] Pt-(GpG) DNA adducts in CTCs treated with cisplatin in medium upfront to systemic therapy from patients with advanced non-small-cell lung cancer (NSCLC) was studied.
Blood was drawn before systemic treatment and the CD45/CD15-depleted fraction of mononuclear cells was exposed to cisplatin, verified for the presence of CTC by pan-cytokeratin (pCK) staining and immunoanalysed for the level of Pt-(GpG) in DNA. Pt-(GpG) adducts can be detected in CTC from NSCLC patients and assessing their kinetics constitutes a clinically feasible biomarker for response prediction and dose individualisation of platinum-based chemotherapy.
Epithelial CTCs were detected that stained positive for DAPI and pCK and negative for CD45. The ratio of pCK− positive to CD45-positive cells in the depleted fractions was in the range of […], resulting in up to three CTC per cell spot on the slides. […]
The measurement of Pt-(GpG) adducts in the nuclear DNA of short term-exposed CTC depict a characteristic time course of formation and removal. […] The degree of association was calculated between these three values of ex vivo adduct persistence in CTC from 11 patients with their therapeutic response using the Spearman's rho rank correlation coefficient. […]

[2] = tested on: Pt-(GpG) in the DNA of CTC; experiment: Pt-(GpG) adduct levels in CTC after cisplatin infusion versus ex vivo exposure; set-up: species or system human; conditions: clinical dose 50 mgm_2 (1.4 mg kg_1 body weight); blood at baseline and 2, 4 and 24 h after infusion; same patient
Description: To test whether adduct kinetics measured in tumour cells after ex vivo exposure to cisplatin mirror the formation and repair rates for Pt-(GpG) in the DNA of those cells in vivo during systemic treatment, blood samples from the same patient were analysed under both the conditions.

SMILES: N.N.[Cl][Pt][Cl] [cisplatin]
- levels of DNA platination in CD45-positive cells as compared with CTC (fold lower) [1]: ~10 fold
- CTC adduct levels after clinical dose versus ex vivo exposure [2]: comparable to a short time ex vivo exposure with 20 mgml_1 for 2 h
